Experimental data from ChEMBL document CHEMBL1132130, “Synthesis of heterocyclic enol ethers and their use as group 2 metabotropic glutamate receptor antagonists” (Bioorg Med Chem Lett, 1999).
Activity calls are given as the source filed them. No cut-off for these calls is given here.

Tests used:
[1] = target: Glutamate receptor ionotropic, kainate (Rattus norvegicus) (UniProt P22756+Q01812+P42260+P42264+Q63273); assay: Compound was tested for inhibition of binding of [3H]kainate to Ionotropic glutamate receptor kainate in rat brain membranes up to 100 uM; IA means inactive; format: cell membranes
[2] = target: Glutamate receptor ionotropic, AMPA (Rattus norvegicus) (UniProt P19491+P19492+P19493+P19490); assay: Compound was tested for inhibition of binding of [3H]-Ro- 48-8587 to Ionotropic glutamate receptor AMPA in rat brain membranes up to 100 uM; IA means inactive; format: cell membranes
[3] = target: Glutamate receptor ionotropic, NMDA 2C (Rattus norvegicus) (UniProt Q00961); assay: Compound was tested for inhibition of binding of [3H]-MK 801 to NMDA receptor in rat brain membranes up to 100 uM; IA means inactive; format: cell membranes
[4] = target: T1, Metabotropic glutamate receptor 2 (Rattus norvegicus, UniProt P31421); assay: Inhibition of [3H]-DCG IV binding on rat mGluR2 transfected cell membranes from CHO cells
[5] = target: Metabotropic glutamate receptor 4 (Rattus norvegicus) (UniProt P31423); assay: Compound was tested for agonistic or antagonistic activity on rat mGluR4 using the GTP-gamma 35S binding model up to 100 uM; IA means devoid of activity
[6] = target: Metabotropic glutamate receptor 5 (Rattus norvegicus) (UniProt P31424); assay: Compound was tested for agonistic or antagonistic activity on rat mGluR5 using intracellular Ca 2+ measurement up to 100 uM; IA means devoid of activity; format: functional, cell-based
[7] = target: T1, Metabotropic glutamate receptor 2; assay: Inhibition of 10 uM 1S, 3R-ACPD stimulated GTP gamma 35S binding to rat mGluR2 expressed in CHO cells; format: cell-based
[8] = target: Metabotropic glutamate receptor 1 (Rattus norvegicus) (UniProt P23385); assay: Compound was tested for agonistic or antagonistic activity on rat mGluR1 using intracellular Ca 2+ measurement up to 100 uM; IA means devoid of activity; format: functional, cell-based
[9] = target: T1, Metabotropic glutamate receptor 2; assay: Inhibition of 1S, 3R-ACPD (10 uM)-stimulated GTP gamma 35S binding on rat mGluR2 transfected cell membranes from CHO cells

T1 sequence (P31421 whole entry): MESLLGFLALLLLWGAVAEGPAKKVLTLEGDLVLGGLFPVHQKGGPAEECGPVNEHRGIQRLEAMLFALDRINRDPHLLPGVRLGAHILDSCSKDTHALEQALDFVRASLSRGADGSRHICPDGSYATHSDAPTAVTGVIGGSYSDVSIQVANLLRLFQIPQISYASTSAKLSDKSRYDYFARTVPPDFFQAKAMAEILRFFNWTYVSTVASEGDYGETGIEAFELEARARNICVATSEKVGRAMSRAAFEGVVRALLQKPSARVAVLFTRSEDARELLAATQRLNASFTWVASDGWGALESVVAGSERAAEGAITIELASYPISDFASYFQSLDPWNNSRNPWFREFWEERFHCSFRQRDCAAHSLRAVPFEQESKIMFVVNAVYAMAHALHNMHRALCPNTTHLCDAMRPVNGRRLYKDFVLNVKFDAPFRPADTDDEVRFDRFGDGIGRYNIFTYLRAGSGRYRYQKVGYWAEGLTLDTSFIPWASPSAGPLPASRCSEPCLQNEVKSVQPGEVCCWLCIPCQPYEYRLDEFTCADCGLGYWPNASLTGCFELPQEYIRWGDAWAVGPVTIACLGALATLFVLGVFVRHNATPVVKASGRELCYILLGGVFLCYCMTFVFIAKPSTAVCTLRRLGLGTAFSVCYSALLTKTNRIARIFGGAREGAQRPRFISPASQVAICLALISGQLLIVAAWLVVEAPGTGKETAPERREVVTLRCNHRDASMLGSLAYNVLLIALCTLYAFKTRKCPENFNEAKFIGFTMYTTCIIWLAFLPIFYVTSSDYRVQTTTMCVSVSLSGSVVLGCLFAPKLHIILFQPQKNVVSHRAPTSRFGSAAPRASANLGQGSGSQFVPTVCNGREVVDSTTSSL
Chain of Glutamate receptor ionotropic, NMDA 2C (Rattus norvegicus) (Q00961 20-1237 limits assumed): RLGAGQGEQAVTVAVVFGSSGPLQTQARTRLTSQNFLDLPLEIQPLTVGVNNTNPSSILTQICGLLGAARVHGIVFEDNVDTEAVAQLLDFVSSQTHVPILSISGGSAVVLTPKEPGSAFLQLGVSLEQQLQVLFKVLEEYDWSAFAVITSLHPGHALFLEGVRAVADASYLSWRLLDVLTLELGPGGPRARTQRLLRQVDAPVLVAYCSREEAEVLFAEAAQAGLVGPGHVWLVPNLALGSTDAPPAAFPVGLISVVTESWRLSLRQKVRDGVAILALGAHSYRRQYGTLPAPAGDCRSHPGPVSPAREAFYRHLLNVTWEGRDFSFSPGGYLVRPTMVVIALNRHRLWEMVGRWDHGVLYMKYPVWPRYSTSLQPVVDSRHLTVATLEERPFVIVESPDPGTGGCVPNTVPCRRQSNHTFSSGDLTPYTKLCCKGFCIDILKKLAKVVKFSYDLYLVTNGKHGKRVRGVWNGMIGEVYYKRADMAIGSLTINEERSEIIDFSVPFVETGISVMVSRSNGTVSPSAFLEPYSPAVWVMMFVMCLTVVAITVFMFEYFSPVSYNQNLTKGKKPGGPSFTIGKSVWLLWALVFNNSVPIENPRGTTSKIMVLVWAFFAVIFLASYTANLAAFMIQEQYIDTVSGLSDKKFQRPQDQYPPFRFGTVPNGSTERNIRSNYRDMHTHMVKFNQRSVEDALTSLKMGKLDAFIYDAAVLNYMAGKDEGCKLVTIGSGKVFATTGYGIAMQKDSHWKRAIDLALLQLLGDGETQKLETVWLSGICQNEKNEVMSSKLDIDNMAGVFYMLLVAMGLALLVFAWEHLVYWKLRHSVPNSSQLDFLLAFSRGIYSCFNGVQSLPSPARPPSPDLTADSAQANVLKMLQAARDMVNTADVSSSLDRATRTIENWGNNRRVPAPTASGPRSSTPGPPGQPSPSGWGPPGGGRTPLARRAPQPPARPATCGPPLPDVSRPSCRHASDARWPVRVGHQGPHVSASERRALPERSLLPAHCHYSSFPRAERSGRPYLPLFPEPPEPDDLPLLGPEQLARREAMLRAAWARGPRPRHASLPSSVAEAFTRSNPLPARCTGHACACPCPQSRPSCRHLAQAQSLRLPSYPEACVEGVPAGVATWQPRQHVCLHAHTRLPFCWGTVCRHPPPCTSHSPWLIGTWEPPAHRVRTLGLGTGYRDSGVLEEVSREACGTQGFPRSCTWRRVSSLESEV
Chain of Metabotropic glutamate receptor 1 (Rattus norvegicus) (P23385 19-1199 limits assumed): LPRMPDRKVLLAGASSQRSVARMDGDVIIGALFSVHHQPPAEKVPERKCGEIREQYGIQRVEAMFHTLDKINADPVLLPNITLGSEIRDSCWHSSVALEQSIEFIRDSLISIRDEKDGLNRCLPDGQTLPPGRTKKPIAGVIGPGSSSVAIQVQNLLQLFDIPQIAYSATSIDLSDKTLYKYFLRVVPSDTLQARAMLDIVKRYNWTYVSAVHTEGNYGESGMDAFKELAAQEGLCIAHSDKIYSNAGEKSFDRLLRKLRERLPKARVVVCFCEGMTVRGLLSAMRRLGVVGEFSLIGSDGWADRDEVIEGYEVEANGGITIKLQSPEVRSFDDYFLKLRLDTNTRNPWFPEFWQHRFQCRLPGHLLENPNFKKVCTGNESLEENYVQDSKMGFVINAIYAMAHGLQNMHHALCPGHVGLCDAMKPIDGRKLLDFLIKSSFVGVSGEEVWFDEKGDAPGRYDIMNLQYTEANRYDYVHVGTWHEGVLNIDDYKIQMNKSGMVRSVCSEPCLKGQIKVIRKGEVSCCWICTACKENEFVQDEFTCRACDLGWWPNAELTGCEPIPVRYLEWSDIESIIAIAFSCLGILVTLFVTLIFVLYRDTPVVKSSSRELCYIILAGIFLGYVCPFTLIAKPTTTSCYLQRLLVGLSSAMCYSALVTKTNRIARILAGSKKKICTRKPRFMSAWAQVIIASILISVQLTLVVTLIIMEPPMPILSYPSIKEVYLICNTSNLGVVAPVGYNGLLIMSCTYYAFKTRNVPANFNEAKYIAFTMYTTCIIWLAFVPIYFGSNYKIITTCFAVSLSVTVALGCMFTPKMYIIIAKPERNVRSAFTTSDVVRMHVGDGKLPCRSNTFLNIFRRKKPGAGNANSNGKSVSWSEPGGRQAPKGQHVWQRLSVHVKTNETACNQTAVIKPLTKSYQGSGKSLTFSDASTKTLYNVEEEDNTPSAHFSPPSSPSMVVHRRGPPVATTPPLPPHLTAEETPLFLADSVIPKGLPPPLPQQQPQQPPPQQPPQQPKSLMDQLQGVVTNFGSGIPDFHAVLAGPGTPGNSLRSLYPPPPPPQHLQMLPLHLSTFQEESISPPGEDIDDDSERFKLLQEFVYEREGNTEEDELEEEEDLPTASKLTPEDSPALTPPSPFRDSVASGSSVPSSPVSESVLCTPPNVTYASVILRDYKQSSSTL
Chain of Metabotropic glutamate receptor 5 (Rattus norvegicus) (P31424 21-1203 limits assumed): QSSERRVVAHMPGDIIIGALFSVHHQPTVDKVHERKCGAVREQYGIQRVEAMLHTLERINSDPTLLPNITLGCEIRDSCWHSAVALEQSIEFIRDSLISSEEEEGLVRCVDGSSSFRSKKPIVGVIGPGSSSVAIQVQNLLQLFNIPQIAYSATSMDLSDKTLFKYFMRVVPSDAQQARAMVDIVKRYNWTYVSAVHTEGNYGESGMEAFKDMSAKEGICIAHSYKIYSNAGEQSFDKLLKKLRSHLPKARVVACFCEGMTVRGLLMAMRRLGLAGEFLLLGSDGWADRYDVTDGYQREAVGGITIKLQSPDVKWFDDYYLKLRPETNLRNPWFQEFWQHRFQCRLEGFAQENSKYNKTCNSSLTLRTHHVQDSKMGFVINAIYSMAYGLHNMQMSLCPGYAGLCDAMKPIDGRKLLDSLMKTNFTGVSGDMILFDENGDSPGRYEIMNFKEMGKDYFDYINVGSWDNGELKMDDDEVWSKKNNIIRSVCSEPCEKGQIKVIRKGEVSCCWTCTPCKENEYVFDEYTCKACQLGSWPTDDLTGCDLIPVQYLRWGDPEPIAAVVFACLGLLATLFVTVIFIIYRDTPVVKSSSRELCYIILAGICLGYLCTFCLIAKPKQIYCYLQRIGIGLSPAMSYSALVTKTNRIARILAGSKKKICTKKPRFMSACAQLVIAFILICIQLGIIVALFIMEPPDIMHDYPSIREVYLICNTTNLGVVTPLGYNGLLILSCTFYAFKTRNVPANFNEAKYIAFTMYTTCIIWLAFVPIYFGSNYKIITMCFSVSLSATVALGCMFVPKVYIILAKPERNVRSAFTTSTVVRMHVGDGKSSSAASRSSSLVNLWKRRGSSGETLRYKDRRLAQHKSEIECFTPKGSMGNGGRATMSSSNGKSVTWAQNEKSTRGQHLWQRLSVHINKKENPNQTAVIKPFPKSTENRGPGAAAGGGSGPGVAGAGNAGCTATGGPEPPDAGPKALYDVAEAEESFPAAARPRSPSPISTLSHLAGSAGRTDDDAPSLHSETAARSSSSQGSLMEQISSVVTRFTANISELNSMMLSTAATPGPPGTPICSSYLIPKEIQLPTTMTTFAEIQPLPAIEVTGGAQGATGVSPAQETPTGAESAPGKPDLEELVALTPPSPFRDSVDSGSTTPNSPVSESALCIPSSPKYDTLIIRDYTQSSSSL

Row | SMILES | Activity [1] | Activity [2] | Activity [3] | IC50 [4] | Activity [5] | Activity [6] | IC50 [7] | Activity [8] | IC50 [9]
1 | Clc1cccc(Cl)c1/C(=C/n1cncn1)OC1CCCCCC1 | inactive | inactive | inactive | 500 nM | inactive | inactive | 110 nM | inactive | –
2 | COc1ccc(/C(=C/n2cncn2)OC(C)C)c(OC)c1 | – | – | – | – | – | – | – | – | > 100000 nM
